Counter-ions that a name gives are not always drawn.
Tested on: GT-1a pRLuc H771b 75 S/I subgenomic replicon cell line
Experiment: HCV GT-1a replicon luciferase reporter assay
Type: cell-based
Settings: Hepatitis C virus, GT1A, 72 h, read-out: GT-1a (IC50) (nM)
Source text: Determination of compounds HCV GT1b inhibitory replicon activity using the replicon luciferase reporter assay
The 2209-23 cell line was developed at Roche by stable transfection of the hepatoma cell line Huh-7 with a GT-1b Con1 subgenomic bicistronic replicon as previously described. Subgenomic replicon cell line was established in cured Huh7 cells, obtained from R. Bartenschlager (J. Virol. 2003 March; 77 (5):3007-19) The GT-1a H77 subgenomic replicon vector pRLuc H771b 75 S/I, was created by replacing the non structural region of the GT-1b Con1 subgenomic replicon by the one of the H77 strain, except for the first 75 amino acids of the NS3 protein that are from GT-1b Con1 strain. (J. Virol. 2001 77:5352-59) The GT-1a pRLuc H771b 75 S/I subgenomic replicon cell line was established in cured Huh7 cells, obtained from R. Bartenschlager. (J. Virol. 2003 March; 77 (5):3007-19)
All the subgenomic replicon cell lines were cultured in Dulbecco's Modified Eagle Medium (DMEM-Glutamax™-I; Invitrogen Cat #10569-010). The medium was supplemented with 10% Fetal Bovine Serum (Invitrogen Cat #10082-147), 1% penicillin/streptomycin (Mediatech Cat #30-002-CI) and 500 μg/ml of G418 (Mediatech Cat #30-234-CI). Cells were maintained at 37° C. in a humidified 5% CO2 atmosphere.
2209-23 cells were plated at a cell density of 5000 cells per well in 96 well plates (Becton Dickinson, Cat #35 3296). Cells were plated in 90 μl of Dulbecco's Modified Eagle Medium (DMEM-Glutamax™-I), (Invitrogen Cat #10569-010) medium was supplemented with 5% Fetal Bovine Serum (Invitrogen Cat #10082-147), 1% penicillin/streptomycin (Mediatech Cat #30-002-CI). The pRluc H771b 75 S/I cells were plated in 96-well plate at 3000 cells/well in DMEM-Glutamax™-I containing 5% FBS and 1% penicillin/streptomycin in 90 μl final volume. Cells were allowed to equilibrate for 24 hours at 37° C. and 5% CO2 at which time compounds were added. Compounds (or medium as a control) were added 24 hours post-plating in 3 fold dilutions at a final DMSO concentration of 1% in 10 ul volume. Renilla luciferase reporter signal was read 72 hours after addition of compounds using the Renilla Luciferase Assay System (Promega, cat #E2820). EC50 values were defined as the compound concentration at which a 50% reduction in the levels of renilla luciferase reporter was observed as compared to control samples in the absence of compound and was determined by non-linear fitting of compound dose-response data. The EC50 was approximated if maximum percentage inhibition was less than 90% and more than 70%.

Row | SMILES | IC50
1 | COC(=O)N[C@H]1CCc2cccc3c2N(C1=O)[C@H](c1ncc(-c2ccc(-c4ccc5cc(-c6cnc([C@@H]7CCCN7C(=O)[C@@H](NC(=O)OC)C(C)C)[nH]6)ccc5n4)cc2)[nH]1)C3 [Compound I-21, ((2S,5S)-2-{4-[4-(6-{2-[(S)-1-((S)-2-Methoxycarbonylamino-3-methyl-butyryl)-pyrrolidin-2-yl]-1H-imidazol-4-yl}-quinolin-2-yl)-phenyl]-1H-imidazol-2-yl}-4-oxo-1,2,4,5,6,7-hexahydro-azepino[3,2,1-hi]indol-5-yl)-carbamic acid methyl ester trifluroacetic acid, trifluoroacetic acid salt] | 0.395 nM
2 | COC(=O)N[C@H]1CCc2cccc3c2N(C1=O)[C@H](c1ncc(-c2ccc(-c4ccc(-c5cnc([C@@H]6CCCN6C(=O)[C@@H](NC(=O)OC)C(C)C)[nH]5)cc4F)cc2)[nH]1)C3 [Compound I-37, {(2S,5S)-2-[5-(2′-Fluoro-4′-{2-[(S)-1-((S)-2-methoxycarbonylamino-3-methyl-butyryl)-pyrrolidin-2-yl]-1H-imidazol-4-yl}-biphenyl-4-yl)-1H-imidazol-2-yl]-4-oxo-1,2,4,5,6,7-hexahydro-azepino[3,2,1-hi]indol-5-yl}-carbamic acid methyl ester] | 5.22 nM
3 | COC(=O)N[C@H]1CCc2cccc3c2N(C1=O)[C@H](c1ncc(-c2ccc(-c4ccc(-c5cnc([C@@H]6C[C@@H](F)CN6C(=O)[C@@H](NC(=O)OC)C(C)C)[nH]5)cc4)cc2)[nH]1)C3 [Compound I-2, {(2S,5S)-2-[5-(4′-{2-[(2S,4R)-4-Fluoro-1-((S)-2-methoxycarbonylamino-3-methyl-butyryl)-pyrrolidin-2-yl]-3H-imidazol-4-yl}-biphenyl-4-yl)-1H-imidazol-2-yl]-4-oxo-1,2,4,5,6,7-hexahydro-azepino[3,2,1-hi]indol-5-yl}-carbamic acid methyl ester] | 18.5 nM
4 | COC(=O)N[C@H]1CCc2cccc3c2N(C1=O)[C@H](c1ncc(-c2ccc(-c4ccc(-c5ccc6nc([C@@H]7CC(F)(F)CN7C(=O)[C@@H](NC(=O)OC)C(C)C)[nH]c6c5)cc4)cc2)[nH]1)C3 [Compound I-4, {(2S,5S)-2-[5-(4′-{2-[(S)-4,4-Difluoro-1-((S)-2-methoxycarbonylamino-3-methyl-butyryl)-pyrrolidin-2-yl]-3H-benzoimidazol-5-yl}-biphenyl-4-yl)-1H-imidazol-2-yl]-4-oxo-1,2,4,5,6,7-hexahydro-azepino[3,2,1-hi]indol-5-yl}-carbamic acid methyl ester] | 4.11 nM
5 | COC(=O)N[C@H]1CCc2cccc3c2N(C1=O)[C@H](c1ncc(-c2cnc(-c4ccc(-c5cnc([C@@H]6CC(F)(F)CN6C(=O)[C@@H](NC(=O)OC)C(C)C)[nH]5)cc4)nc2)[nH]1)C3 [Compound I-16, ((2S,5S)-2-{5-[2-(4-{2-[(S)-1-((S)-2-Methoxycarbonylamino-3-methyl-butyryl)-4,4-difluoro-pyrrolidin-2-yl]-3H-imidazol-4-yl}-phenyl)-pyrimidin-5-yl]-1H-imidazol-2-yl}-4-oxo-1,2,4,5,6,7-hexahydro-azepino[3,2,1-hi]indol-5-yl)-carbamic acid methyl ester] | 29.2 nM
6 | COC(=O)N[C@H]1CCc2cccc3c2N(C1=O)[C@H](c1ncc(-c2ccc(-c4ccc(-c5ccc6nc([C@@H]7CCCN7C(=O)[C@@H](NC(=O)OC)C(C)C)[nH]c6c5)nc4)cc2)[nH]1)C3 [Compound I-7, ((2S,5S)-2-{5-[4-(6-{2-[(S)-1-((S)-2-Methoxycarbonylamino-3-methyl-butyryl)-pyrrolidin-2-yl]-3H-benzoimidazol-5-yl}-pyridin-3-yl)-phenyl]-1H-imidazol-2-yl}-4-oxo-1,2,4,5,6,7-hexahydro-azepino[3,2,1-hi]indol-5-yl)-carbamic acid methyl ester] | 32.2 nM
7 | COCC[C@H](NC(=O)OC)C(=O)N1CCC[C@H]1c1ncc(-c2ccc(-c3ccc(-c4cnc([C@@H]5Cc6cccc7c6N5C(=O)[C@@H](NC(=O)OC)CC7)[nH]4)cc3)cc2)[nH]1 [Compound I-46] | 2.96 nM
8 | COC(=O)N[C@H]1CCc2cccc3c2N(C1=O)[C@H](c1ncc(-c2ccc(-c4ccc5cc(-c6cnc([C@@H]7C[C@H](C#N)CN7C(=O)[C@@H](NC(=O)OC)C(C)C)[nH]6)ccc5c4)cc2)[nH]1)C3 [Compound I-41, {(2S,5S)-2-{5-[4-(6-{2-[(2S,4S)-4-Cyano-1-((S)-2-methoxycarbonylamino-3-methyl-butyryl)-pyrrolidin-2-yl]-3H-imidazol-4-yl}-naphthalen-2-yl)-phenyl]-1H-imidazol-2-yl]-4-oxo-1,2,4,5,6,7-hexahydro-azepino[3,2,1-hi]indol-5-yl}-carbamic acid methyl ester] | 2.49 nM
9 | COC(=O)N[C@H]1CCc2cccc3c2N(C1=O)[C@H](c1ncc(-c2cnc4cc(-c5ccc(-c6[nH]c([C@@H]7CCCN7C(=O)[C@@H](NC(=O)OC)C(C)C)nc6Cl)cc5)ccc4c2)[nH]1)C3 [Compound I-20, ((2S,5S)-2-{5-[7-(4-{5-Chloro-2-[(S)-1-((S)-2-methoxycarbonylamino-3-methyl-butyryl)-pyrrolidin-2-yl]-3H-imidazol-4-yl}-phenyl)-quinolin-3-yl]-1H-imidazol-2-yl}-4-oxo-1,2,4,5,6,7-hexahydro-azepino[3,2,1-hi]indol-5-yl)-carbamic acid methyl ester trifluroacetic acid, trifluoroacetic acid salt] | 12 nM
10 | COC(=O)N[C@H]1CCc2cccc3c2N(C1=O)[C@H](c1ncc(-c2ccc(-c4ccc(-c5cnc([C@@H]6COCCN6C(=O)[C@@H](NC(=O)OC)C(C)C)[nH]5)cc4)cc2)[nH]1)C3 [Compound I-64, {(2S,5S)-2-[5-(4′-{2-[(R)-4-((S)-2-Methoxycarbonylamino-3-methyl-butyryl)-morpholin-3-yl]-3H-imidazol-4-yl}-biphenyl-4-yl)-1H-imidazol-2-yl]-4-oxo-1,2,4,5,6,7-hexahydro-azepino[3,2,1-hi]indol-5-yl}-carbamic acid methyl ester] | 9.87 nM
11 | COC(=O)N[C@H]1CCc2cccc3c2N(C1=O)[C@H](c1ncc(-c2ccc(-c4ccc(-c5cnc([C@@H]6CCCN6C(=O)[C@@H](NC(=O)OC)C(C)C)[nH]5)cc4C#N)cc2)[nH]1)C3 [Compound I-38, {(2S,5S)-2-[5-(2′-Cyano-4′-{2-[(S)-1-((S)-2-methoxycarbonylamino-3-methyl-butyryl)-pyrrolidin-2-yl]-1H-imidazol-4-yl}-biphenyl-4-yl)-1H-imidazol-2-yl]-4-oxo-1,2,4,5,6,7-hexahydro-azepino[3,2,1-hi]indol-5-yl}-carbamic acid methyl ester] | 22.4 nM
12 | COC(=O)NC(C(=O)N1CCCC1c1ncc(-c2ccc(-c3ccc(-c4cnc([C@@H]5Cc6cc(C#N)cc7c6N5C(=O)[C@@H](NC(=O)OC)CC7)[nH]4)cc3)cc2)[nH]1)C(C)C (stereo in doubt) [Compound I-26, {(2S,5S)-9-Cyano-2-[5-(4′-{2-[(R)-1-((R)-2-methoxycarbonylamino-3-methyl-butyryl)-pyrrolidin-2-yl]-3H-imidazol-4-yl}-biphenyl-4-yl)-1H-imidazol-2-yl]-4-oxo-1,2,4,5,6,7-hexahydro-azepino[3,2,1-hi]indol-5-yl}-carbamic acid methyl ester] | 7.71 nM

— US20120230951A1 (priority 2011, published 2012)
